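Each compound was tested at five concentrations against cells in 96-well plates for 48 hours. GI50 = concentration required for 50% inhibition of growth.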 Active and inactive are the calls of the source. Rule as the data show it: active = GI50 up to about 1.1 µM and inactive = higher.
What was measured:
Test in all cases: NCI-60 cell line screen, 48 h
[1] = system: OVCAR-3
[2] = system: DU-145
[3] = system: MOLT-4
[4] = system: M14
[5] = system: RXF 393
[6] = system: ACHN
[7] = system: DMS-114
[8] = system: SNB-19
[9] = system: LOX IMVI
[10] = system: SK-MEL-28
[11] = system: TK-10
[12] = system: UACC-257
[13] = system: MDA-N
[14] = system: SK-OV-3
[15] = system: RPMI-8226
[16] = system: SK-MEL-5
[17] = system: MDA-MB-231
[18] = system: SN12C
[19] = system: Malme-3M
[20] = system: BT-549

Measured: GI50

CCC/N=C/c1c(O)c(O)c(C(C)C)c2cc(C)c(-c3c(C)cc4c(C(C)C)c(O)c(O)c(/C=N/CCC)c4c3O)c(O)c12
inactive: [1] 3.88 µM | [2] 23.8 µM | [3] 3.41 µM | [4] 7.41 µM | [5] 3.54 µM | [6] 3.99 µM | [7] 1.71 µM | [8] 6.47 µM | [9] 6.04 µM | [10] 12.6 µM | [11] > 100 µM | [12] 9.59 µM | [13] 8.63 µM | [14] 4.75 µM | [15] 9.16 µM | [16] 18.7 µM | [17] 13.9 µM | [18] 10.4 µM

O=C(NCCCCCCNC(=O)n1cc(F)c(=O)[nH]c1=O)NCCCOCCOCCOCCOCCOCCOCCOCCOCCOCCOCCOCCOCCOCCOCCOCCOCCOCCOCCOCCOCCOCCCNC(=O)C(O)C(O)C(O)C(O)CO (centres undefined)
inactive: [19] 20.2 µM | [1] 55.5 µM | [2] 25.4 µM | [3] 33.9 µM | [4] 75.3 µM | [5] 43.2 µM | [6] 26.7 µM | [20] 37.7 µM | [7] > 100 µM | [8] 84.7 µM | [9] 16.3 µM | [10] 16.3 µM | [11] 15.6 µM | [12] > 90.2 µM | [13] 33.9 µM | [14] > 100 µM | [15] 5.85 µM | [16] 51.9 µM | [17] > 100 µM | [18] 80 µM

COc1ccc(/C(Cl)=C(\C=O)c2ccc([N+](=O)[O-])cc2)cc1OC
inactive: [19] 14.6 µM | [1] 11.5 µM | [2] 19.2 µM | [3] 3.05 µM | [4] 7.28 µM | [5] 3.76 µM | [6] 8.83 µM | [7] 5.78 µM | [8] > 46.5 µM | [9] 2.87 µM | [10] 13.1 µM | [11] 13.4 µM | [12] 11.5 µM | [13] 3.25 µM | [14] 26.7 µM | [15] 2.87 µM | [16] 8.2 µM | [17] 13.8 µM | [18] 5.73 µM

CC(C)N(C(=O)C12C3C4C5(C#N)C3C1(I)C5C42I)C(C)C (centres undefined)
inactive: [19] > 100 µM | [1] > 100 µM | [3] > 100 µM | [4] > 100 µM | [5] > 100 µM | [6] > 100 µM | [7] > 42.5 µM | [8] > 100 µM | [9] > 40.3 µM | [10] > 100 µM | [11] > 100 µM | [12] > 100 µM | [14] > 100 µM | [15] > 49.8 µM | [16] > 100 µM | [18] > 68.2 µM

N#CN=C(NCc1ccccc1)NCc1ccccc1
inactive: [19] > 100 µM | [1] > 100 µM | [3] > 100 µM | [4] > 100 µM | [5] > 48.6 µM | [6] > 64.9 µM | [7] > 38.3 µM | [8] > 100 µM | [9] > 100 µM | [10] > 100 µM | [11] > 100 µM | [12] > 100 µM | [14] > 100 µM | [15] > 100 µM | [16] > 100 µM | [18] > 100 µM
